Assay results published in PubChem BioAssay (NCI).
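1) Cells in 96-well plates. 2) Compound, 48 h, 5 concentrations. 3) Linear interpolation between surrounding doses. 4) Unreached endpoint = highest concentration. TGI denotes the concentration required for complete inhibition of growth.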

Columns and labels:
Assay in all cases: NCI anticancer screen, dose series, 48 h
[1] = test system: OVCAR-5 ovarian
[2] = test system: RXF 393 renal
[3] = test system: T-47D breast
[4] = test system: MCF7 breast
[5] = test system: MDA-MB-231 breast
[6] = test system: MDA-N
[7] = test system: OVCAR-8 ovarian
[8] = test system: UO-31 renal
[9] = test system: 786-0 renal
[10] = test system: MALME-3M melanoma
[11] = test system: NCI-H522 lung
[12] = test system: KM12 colon
[13] = test system: NCI-H226 lung
[14] = test system: COLO 205 colon
[15] = test system: M14 melanoma
[16] = test system: SR leukemia
[17] = test system: A549 NSCLC
[18] = test system: UACC-257 melanoma
[19] = test system: SK-MEL-28 melanoma
[20] = test system: DU-145 prostate
[21] = test system: HCT-15 colon
[22] = test system: MOLT-4 leukemia
[23] = test system: BT-549 breast
[24] = test system: SNB-19 CNS
[25] = test system: OVCAR-4 ovarian
[26] = test system: SK-MEL-5 melanoma
[27] = test system: LOX IMVI melanoma
[28] = test system: K-562 leukemia
[29] = test system: HT29 colon
[30] = test system: SF-268 CNS
[31] = test system: NCI-H460 lung
[32] = test system: NCI/ADR-RES ovarian
[33] = test system: HL-60(TB) leukemia
[34] = test system: UACC-62 melanoma
[35] = test system: RPMI-8226 leukemia
[36] = test system: U251 CNS
[37] = test system: IGROV1 ovarian
[38] = test system: OVCAR-3 ovarian
[39] = test system: EKVX NSCLC
[40] = test system: HCT-116 colon
[41] = test system: PC-3 prostate
[42] = test system: HS 578T breast
[43] = test system: HOP-62 NSCLC
[44] = test system: CAKI-1 renal
[45] = test system: SNB-75 CNS
[46] = test system: TK-10 renal
[47] = test system: SK-OV-3 ovarian
[48] = test system: ACHN renal
[49] = test system: MDA-MB-435
[50] = test system: SF-295 CNS
[51] = test system: SN12C renal
[52] = test system: NCI-H23 lung
[53] = test system: SK-MEL-2 melanoma
[54] = test system: HOP-92 NSCLC
[55] = test system: A498 renal
[56] = test system: SW-620 colon
[57] = test system: SF-539 CNS

S=C1Nc2cnc3ccccc3c2SC1c1ccccc1 (stereo unspecified)
TGI [1]: > 100 µM | TGI [2]: 99.4 µM | TGI [3]: > 100 µM | TGI [4]: > 100 µM | TGI [5]: > 100 µM | TGI [6]: > 100 µM | TGI [7]: > 100 µM | TGI [8]: > 100 µM | TGI [9]: > 100 µM | TGI [10]: > 100 µM | TGI [11]: > 100 µM | TGI [12]: > 100 µM | TGI [13]: > 100 µM | TGI [14]: > 100 µM | TGI [15]: > 100 µM | TGI [16]: > 100 µM | TGI [17]: > 100 µM | TGI [18]: > 100 µM | TGI [19]: > 100 µM | TGI [20]: > 100 µM | TGI [21]: > 100 µM | TGI [22]: > 100 µM | TGI [23]: > 100 µM | TGI [24]: > 100 µM | TGI [25]: > 100 µM | TGI [26]: > 100 µM | TGI [27]: > 100 µM | TGI [28]: > 100 µM | TGI [29]: > 100 µM | TGI [30]: > 100 µM | TGI [31]: > 100 µM | TGI [32]: > 100 µM | TGI [33]: > 100 µM | TGI [34]: > 100 µM | TGI [35]: > 100 µM | TGI [36]: > 100 µM | TGI [37]: > 100 µM | TGI [38]: > 100 µM | TGI [39]: > 100 µM | TGI [40]: > 100 µM | TGI [41]: > 100 µM | TGI [42]: > 100 µM | TGI [43]: > 100 µM | TGI [44]: > 100 µM | TGI [45]: > 100 µM | TGI [46]: > 100 µM | TGI [47]: > 100 µM | TGI [48]: > 100 µM | TGI [49]: > 100 µM | TGI [50]: > 100 µM | TGI [51]: > 100 µM | TGI [52]: > 100 µM

CCC1c2[nH]c3ccccc3c2C[C@H]2C(=O)NC(Cc3c[nH]c4ccccc34)C(=O)N12 (stereo partly specified)
TGI [1]: 58.5 µM | TGI [2]: 37.1 µM | TGI [3]: > 100 µM | TGI [4]: > 100 µM | TGI [5]: 38.1 µM | TGI [6]: 55.2 µM | TGI [7]: 94 µM | TGI [8]: > 100 µM | TGI [9]: 55.1 µM | TGI [10]: 36.3 µM | TGI [11]: 55 µM | TGI [12]: 43.4 µM | TGI [13]: 82.1 µM | TGI [14]: 36.2 µM | TGI [15]: 49.2 µM | TGI [16]: 49.6 µM | TGI [17]: > 100 µM | TGI [18]: 42.2 µM | TGI [19]: > 100 µM | TGI [20]: > 100 µM | TGI [21]: 78.2 µM | TGI [22]: 47.9 µM | TGI [23]: 52.9 µM | TGI [24]: > 100 µM | TGI [25]: > 100 µM | TGI [26]: 31.8 µM | TGI [27]: 49.3 µM | TGI [28]: > 100 µM | TGI [29]: 62.2 µM | TGI [30]: > 100 µM | TGI [53]: 38.6 µM | TGI [32]: 76.6 µM | TGI [33]: 46.4 µM | TGI [34]: 32.6 µM | TGI [35]: 55.8 µM | TGI [36]: 34.7 µM | TGI [37]: 65.2 µM | TGI [38]: 37.8 µM | TGI [54]: 74 µM | TGI [39]: 88.3 µM | TGI [40]: 35.1 µM | TGI [41]: 53.1 µM | TGI [42]: 49.4 µM | TGI [43]: 50.6 µM | TGI [44]: 67.3 µM | TGI [46]: 80.4 µM | TGI [47]: > 100 µM | TGI [48]: > 100 µM | TGI [55]: > 100 µM | TGI [49]: 41.1 µM | TGI [50]: 35 µM | TGI [51]: 52.6 µM | TGI [52]: 63.2 µM | TGI [56]: > 100 µM

COCCOc1nc(-c2ccccc2)nc2ccccc12
TGI [1]: > 100 µM | TGI [2]: 30.6 µM | TGI [3]: > 100 µM | TGI [4]: > 100 µM | TGI [5]: > 100 µM | TGI [6]: > 100 µM | TGI [7]: > 100 µM | TGI [8]: > 100 µM | TGI [10]: > 100 µM | TGI [11]: > 100 µM | TGI [12]: > 100 µM | TGI [14]: > 100 µM | TGI [15]: 90 µM | TGI [16]: 60.9 µM | TGI [17]: > 100 µM | TGI [18]: > 100 µM | TGI [19]: > 100 µM | TGI [20]: > 100 µM | TGI [21]: 43.3 µM | TGI [22]: 70.4 µM | TGI [23]: > 100 µM | TGI [24]: > 100 µM | TGI [25]: > 100 µM | TGI [26]: 88.3 µM | TGI [27]: > 100 µM | TGI [28]: > 100 µM | TGI [29]: > 100 µM | TGI [30]: > 100 µM | TGI [31]: 62 µM | TGI [53]: > 100 µM | TGI [32]: > 100 µM | TGI [33]: > 100 µM | TGI [34]: > 100 µM | TGI [35]: 45.5 µM | TGI [36]: > 100 µM | TGI [37]: > 100 µM | TGI [38]: > 100 µM | TGI [54]: 87.6 µM | TGI [39]: > 100 µM | TGI [40]: > 100 µM | TGI [41]: > 100 µM | TGI [42]: 73 µM | TGI [43]: > 100 µM | TGI [44]: > 100 µM | TGI [45]: > 100 µM | TGI [46]: > 100 µM | TGI [57]: > 100 µM | TGI [47]: > 100 µM | TGI [48]: > 100 µM | TGI [55]: 70 µM | TGI [49]: > 100 µM | TGI [50]: > 100 µM | TGI [51]: > 100 µM | TGI [52]: > 100 µM | TGI [56]: > 100 µM
